Patent US11377448B2, “Crystalline sodium salt of 5-methyl-(6S)-tetrahydrofolic acid” (priority 2017, dated 2022)

What was measured:
[1] = purified/de-ionized water, room temperature, agitated and briefly sonicated
Method: The measurement of the kinetic solubility was conducted as described in the experimental part.
50 mg of crystalline sodium salt of 5-methyl-(6S)-tetrahydrofolic acid (according to Example 1) is weighed into a 4 ml glass vial with screw cap. Then 0.5 ml of purified/de-ionized water is added.
2.535 ml of purified/de-ionized water is added to the solid using an adjustable volumetric pipette. The mixture is vigorously agitated at room temperature and briefly sonicated.

[2] = Long-term stability at 25° C./60% rh, content by HPLC; settings: for 5-methyl-(6S)-tetrahydrofolic acid (% w/w) / Pyrazino-s-triazine derivative of 4α-hydroxy-5-methyl-THF (MeFox) (% w/w) / 5-methyl-(6S)-tetrahydrofolic acid (% rel.): 25° C./60% rh; for Pyrazino-s-triazine derivative of 4α-hydroxy-5-methyl-THF (MeFox) (% w/w): major degradation product; for 5-methyl-(6S)-tetrahydrofolic acid (% rel.): relative to initial value
Method: (§1) Amorphous monosodium salt of 5-methyl-(6S)-tetrahydrofolic acid prepared according to Reference Example 6, crystalline calcium salt of 5-methyl-(6S)-tetrahydrofolic acid, prepared according to literature procedures (EP 1 044 975 B1) and crystalline sodium salt of 5-methyl-(6S)-tetrahydrofolic acid, prepared as disclosed in Example 1, were stored at 25° C./60% rh. The content of 5-methyl-(6S)-tetrahydrofolic acid remaining in the samples was measured by HPLC at periodic intervals (% w/w). The content of 5-methyl-(6S)-tetrahydrofolic acid remaining was also compared to the initial value at the time of preparation (% rel.). Additionally the content of the pyrazino-s-triazine derivative of 4α-hydroxy-5-methyl-THF (MeFox), a major degradation product, was measured by HPLC at periodic intervals and disclosed as absolute values (% w/w).

[3] = Long-term stability at 40° C./75% rh, content by HPLC; assay type: physicochemical; settings: for Pyrazino-s-triazine derivative of 4α-hydroxy-5-methyl-THF (MeFox) (% w/w): major degradation product; for 5-methyl-(6S)-tetrahydrofolic acid (% rel.): relative to initial value
Method: as §1, with “40° C./75%” for “25° C./60%”, “sample” for “samples”

Row | SMILES | solubility (kinetic solubility) in water [1] | 5-methyl-(6S)-tetrahydrofolic acid (% w/w) ([2]; 0 months) | Pyrazino-s-triazine derivative of 4α-hydroxy-5-methyl-THF (MeFox) (% w/w) ([2]; 0 months) | 5-methyl-(6S)-tetrahydrofolic acid (% rel.) ([2]; 0 months) | 5-methyl-(6S)-tetrahydrofolic acid (% w/w) ([2]; 3 months) | Pyrazino-s-triazine derivative of 4α-hydroxy-5-methyl-THF (MeFox) (% w/w) ([2]; 3 months) | 5-methyl-(6S)-tetrahydrofolic acid (% rel.) ([2]; 3 months) | 5-methyl-(6S)-tetrahydrofolic acid (% w/w) ([2]; 6 months) | Pyrazino-s-triazine derivative of 4α-hydroxy-5-methyl-THF (MeFox) (% w/w) ([2]; 6 months) | 5-methyl-(6S)-tetrahydrofolic acid (% rel.) ([2]; 6 months) | 5-methyl-(6S)-tetrahydrofolic acid (% w/w) ([2]; 9 months) | Pyrazino-s-triazine derivative of 4α-hydroxy-5-methyl-THF (MeFox) (% w/w) ([2]; 9 months) | 5-methyl-(6S)-tetrahydrofolic acid (% rel.) ([2]; 9 months) | 5-methyl-(6S)-tetrahydrofolic acid (% w/w) ([3]; 0 months) | Pyrazino-s-triazine derivative of 4α-hydroxy-5-methyl-THF (MeFox) (% w/w) ([3]; 0 months) | 5-methyl-(6S)-tetrahydrofolic acid (% rel.) ([3]; 0 months) | 5-methyl-(6S)-tetrahydrofolic acid (% w/w) ([3]; 3 months) | Pyrazino-s-triazine derivative of 4α-hydroxy-5-methyl-THF (MeFox) (% w/w) ([3]; 3 months) | 5-methyl-(6S)-tetrahydrofolic acid (% rel.) ([3]; 3 months) | 5-methyl-(6S)-tetrahydrofolic acid (% w/w) ([3]; 6 months) | also measured
1 | CN1c2c(nc(N)[nH]c2=O)NC[C@@H]1CNc1ccc(C(=O)N[C@@H](CCC(=O)[O-])C(=O)[O-])cc1.[Na+].[Na+] [sodium salt of 5-methyl-(6S)-tetrahydrofolic acid] | greater than 100 mg per 1 ml of water | 82.3 | 0.07 | 100.0 | 80.0 | 1.01 | 97.3 | 78.6 | 1.31 | 95.5 | 74.7 | 1.42 | 90.8 | 82.3 | 0.07 | 100.0 | 78.6 | 1.52 | 95.6 | 77.3 | stability over a long period of time compared to the crystalline calcium salt ([2]; summary of Tables 1 to 4 (25° C./60% rh and 40° C./75% rh)): comparable stability; Pyrazino-s-triazine derivative of 4α-hydroxy-5-methyl-THF (MeFox) (% w/w) ([3]; 6 months): 1.69 % w/w; 5-methyl-(6S)-tetrahydrofolic acid (% rel.) ([3]; 6 months): 94.0 % rel.; 5-methyl-(6S)-tetrahydrofolic acid (% w/w) ([3]; 9 months): 77.9 % w/w; Pyrazino-s-triazine derivative of 4α-hydroxy-5-methyl-THF (MeFox) (% w/w) ([3]; 9 months): 1.51 % w/w; 5-methyl-(6S)-tetrahydrofolic acid (% rel.) ([3]; 9 months): 94.7 % rel.
2 | CN1c2c(nc(N)[nH]c2=O)NC[C@@H]1CNc1ccc(C(=O)N[C@@H](CCC(=O)[O-])C(=O)O)cc1.[Na+] [5-methyl-(6S)-tetrahydrofolic acid monosodium salt] |  | 84.9 | 0.43 | 100.0 | 60.6 | 2.60 | 71.3 | 63.2 | 2.75 | 74.5 |  |  |  | 84.9 | 0.43 | 100.0 | 61.6 | 2.79 | 72.6 |  | 
3 | CN1c2c([nH]c(N)nc2=O)NC[C@@H]1CNc1ccc(C(=O)N[C@@H](CCC(=O)[O-])C(=O)[O-])cc1.[Ca+2] [calcium salt of 5-methyl-(6S)-tetrahydrofolic acid] | smaller than 10 mg per 1 ml of water | 80.7 | 0.20 | 100.0 | 79.0 | 0.84 | 97.9 | 77.7 | 0.90 | 96.3 | 78.5 | 0.85 | 97.3 | 80.7 | 0.20 | 100.0 | 78.5 | 1.01 | 97.2 | 78.0 | 5-methyl-(6S)-tetrahydrofolic acid (% w/w) ([2]; 12 months): 77.9 % w/w; Pyrazino-s-triazine derivative of 4α-hydroxy-5-methyl-THF (MeFox) (% w/w) ([2]; 12 months): 0.86 % w/w; 5-methyl-(6S)-tetrahydrofolic acid (% rel.) ([2]; 12 months): 96.5 % rel.; Pyrazino-s-triazine derivative of 4α-hydroxy-5-methyl-THF (MeFox) (% w/w) ([3]; 6 months): 0.96 % w/w; 5-methyl-(6S)-tetrahydrofolic acid (% rel.) ([3]; 6 months): 96.6 % rel.; 5-methyl-(6S)-tetrahydrofolic acid (% w/w) ([3]; 9 months): 78.8 % w/w; Pyrazino-s-triazine derivative of 4α-hydroxy-5-methyl-THF (MeFox) (% w/w) ([3]; 9 months): 0.93 % w/w; 5-methyl-(6S)-tetrahydrofolic acid (% rel.) ([3]; 9 months): 97.6 % rel.; 5-methyl-(6S)-tetrahydrofolic acid (% w/w) ([3]; 12 months): 77.8 % w/w; Pyrazino-s-triazine derivative of 4α-hydroxy-5-methyl-THF (MeFox) (% w/w) ([3]; 12 months): 0.95 % w/w; 5-methyl-(6S)-tetrahydrofolic acid (% rel.) ([3]; 12 months): 96.3 % rel.
